{"source": "patent US20250275976A1", "about": "“Methods of Treating Neuroinflammatory Conditions” (Athira Pharma, Inc., priority 2022, published 2025)", "key": {"[1]": {"test_system": "dopaminergic (DA) neurons", "assay": "TH+ neuron number and neurite network after MPP+, rotenone or 6-OHDA injury", "type": "cell-based, rat (Wistar)", "parameters": "key to Neurite Network (significance vs insult) / TH+ neuron number (significance vs insult): “NS” indicates that the comparison was not statistically significant; “+” indicates that p<0.05", "excerpt": "A range of neurodegenerative disease states converge on neuroinflammatory dysfunction related to mitochondrial impairment and the generation of reactive oxygen species (ROS). Chemical disruption of mitochondrial function by treatment of neuron cultures with 1-methyl-4-phenylpyridium (MPP+) or the pesticide rotenone can lead to activation of inflammatory signaling pathways and death via apoptotic and necrotic mechanisms. Similarly, intracellular oxidation of 6-hydroxydopamine (6-OHDA), which is readily absorbed by dopaminergic neurons in culture, leads to production of ROS within the cell, activation of inflammatory signaling, and cell death. In vitro exposure to these neurotoxins has been successfully used to model the effects of neurodegenerative inflammation and identify therapeutic agents that can protect neurons from these effects.\nMidbrain tissue obtained from 15-day old rat (Wistar) embryos was dissected and the ventral mesencephalic region, an area rich in dopaminergic (DA) neurons was removed and dissociated by trypsinization and mechanical passage. Cells were cultured in Neurobasal medium supplemented with B27 (2%), L-glutamine (2 mM), 2% of Penicillin-Streptomycin (PS) solution, 10 ng/mL of Brain-derived neurotrophic factor (BDNF) and 1 ng/mL of Glial-Derived Neurotrophic Factor (GDNF).\nViable cells were seeded at a density of 40,000 cells/well in 96-well plates and maintained at 37° C. in 5% CO2. […] Subsequently, chemical insults were added to the culture in separate plates as follows: 4 uM of MPP+ for 48 hours, 10 nM of rotenone for 24 hours, and 20 uM of 6-OHDA for 24 hours.\nFollowing incubation, cell culture supernatant was replaced by a fixative solution of 4% paraformaldehyde in PBS for 20 minutes and prepared for immunostaining. Fixed cultures were stained with a monoclonal anti-Tyrosine Hydroxylase (TH) antibody (1:10000 in PBS, 2 hrs, RT) followed by incubation with appropriate fluorescent secondary antibody and Hoechst dye. Automated fluorescent imaging, 20 images per well, was performed at 10× magnification. Computation image analysis was used to quantify the total number of TH+ neurons, and the total length of the neurite network. Statistical analysis using a one-way ANOVA followed by Fishers LSD test compared inflammatory insult cultures with and without test compound treatment."}, "[2]": {"test_system": "BV2 microglia", "assay": "Nitrite production in LPS-stimulated BV2 microglia (Griess Reagent System)", "type": "cell-based", "parameters": "key to Inflammatory Readout: Nitrite (significance of reduction): “NS” indicates a non-significant reduction NO production; “++” indicates a p value < 0.005 in Dunnett's multiple comparison; “+++” indicates a p value < 0.0005 in Dunnett's multiple comparison", "conditions": "for Inflammatory Readout: Nitrite (significance of reduction): LPS pre-treatment 45 minutes, compound 23.5 hours", "excerpt": "Microglia are the resident immune cells of the brain and, when activated by pathological conditions, promote broad-spectrum neuroinflammation. When activated by toxic exogenous substances, microglia produce excessive reactive oxygen species (ROS), nitric oxide (NO), and proinflammatory cytokines, which further propagates disease pathogenesis. BV2 microglia were used as an in-vitro cell model to evaluate mechanisms relevant to inflammation in the CNS. Upon activation of TLR4 with LPS, microglia are activated and trigger excessive oxidative stress, a process that is partially mediated by AKT phosphorylation (pAKT) and activation. Microglia activation also leads to a range of changes in gene expression.\nCompound A19 active metabolite (Compound A19-AM) was investigated for whether it could reduce the inflammatory effect of LPS in microglia. Inflammatory activation of BV2 microglia cells was stimulated by pre-treatment with LPS for 45 minutes, followed by the addition of test compound for 1 hour (pAKT) or 23.5 hours (NO and gene expression panel). For pAKT measurement, cells were lysed and the pAKT measurement was conducted using the HTRF system. For NO production, culture supernatants were collected and assessed for the presence of nitrite, a primary metabolic product of nitric oxide.\nQuantification of nitrite production in cell culture supernatants was accomplished using the Griess Reagent System (Promega, G2930). Measurement of pAKT was assessed utilizing Phospho-AKT 1/2/3 (Ser473) […] Cellular Detection Kit (CisBio, 64AKSPEH).\nData analysis was performed via One-way ANOVA with Dunnett's multiple comparisons test compared to LPS-stimulated, vehicle treated cultures using Prism statistical software (GraphPad). Tabular data indicates significance of reduction in the indicated analyte at the indicated dose."}, "[3]": {"test_system": "primary culture of both cortical neurons and microglia", "assay": "Microglial activation (Iba1 area) after Aβ1-42 challenge", "type": "cell-based", "parameters": "key to Significant decrease in Iba1 area, compared to vehicle treated (Aβ challenge): “NS” indicates a non-significant change in Iba1 area; “+” indicates a p value < 0.05 in Fisher's LSD post-test compared to Aβ challenged"}, "[4]": {"conditions": "6-OHDA injury (20 uM, 24 hrs), dose 0.01 nM"}, "[5]": {"conditions": "6-OHDA injury (20 uM, 24 hrs), dose 0.1 nM"}, "[6]": {"conditions": "6-OHDA injury (20 uM, 24 hrs), dose 1 nM"}, "[7]": {"conditions": "6-OHDA injury (20 uM, 24 hrs), dose 10 nM"}, "[8]": {"conditions": "6-OHDA injury (20 uM, 24 hrs), dose 100 nM"}, "[9]": {"conditions": "6-OHDA injury (20 uM, 24 hrs), dose 1000 nM"}, "[10]": {"conditions": "MPP+ injury (4 uM, 48 hrs), dose 0.01 nM"}, "[11]": {"conditions": "MPP+ injury (4 uM, 48 hrs), dose 0.1 nM"}, "[12]": {"conditions": "MPP+ injury (4 uM, 48 hrs), dose 1 nM"}, "[13]": {"conditions": "MPP+ injury (4 uM, 48 hrs), dose 10 nM"}, "[14]": {"conditions": "MPP+ injury (4 uM, 48 hrs), dose 100 nM"}, "[15]": {"conditions": "MPP+ injury (4 uM, 48 hrs), dose 1000 nM"}, "[16]": {"conditions": "Rotenone injury (10 nM, 24 hrs), dose 0.01 nM"}, "[17]": {"conditions": "Rotenone injury (10 nM, 24 hrs), dose 0.1 nM"}, "[18]": {"conditions": "Rotenone injury (10 nM, 24 hrs), dose 1 nM"}, "[19]": {"conditions": "Rotenone injury (10 nM, 24 hrs), dose 10 nM"}, "[20]": {"conditions": "Rotenone injury (10 nM, 24 hrs), dose 100 nM"}, "[21]": {"conditions": "Rotenone injury (10 nM, 24 hrs), dose 1000 nM"}}, "note": "Square brackets hold non-standard residues; d marks the D form. Peptide text beside a SMILES is read from it. * marks the point of attachment. Hexanoyl = CCCCCC(=O)*; Ahx = NCCCCCC(=O)O", "data": [{"compound": "CCCCCC(=O)N[C@@H](Cc1ccc(O)cc1)C(=O)N[C@H](C(=O)NCCCCCC(N)=O)[C@@H](C)CC", "note": "[Compound A19 active metabolite, dihexa] (Hexanoyl-Tyr-Ile-[Ahx]-NH2)", "values": [{"measurement": "Neurite Network (significance vs insult)", "setting": "[1]; [4]", "value": "NS"}, {"measurement": "TH+ neuron number (significance vs insult)", "setting": "[1]; [4]", "value": "NS"}, {"measurement": "Neurite Network (significance vs insult)", "setting": "[1]; [5]", "value": "NS"}, {"measurement": "TH+ neuron number (significance vs insult)", "setting": "[1]; [5]", "value": "NS"}, {"measurement": "Neurite Network (significance vs insult)", "setting": "[1]; [6]", "value": "NS"}, {"measurement": "TH+ neuron number (significance vs insult)", "setting": "[1]; [6]", "value": "+ (“+” indicates that p<0.05)"}, {"measurement": "Neurite Network (significance vs insult)", "setting": "[1]; [7]", "value": "+ (“+” indicates that p<0.05)"}, {"measurement": "TH+ neuron number (significance vs insult)", "setting": "[1]; [7]", "value": "+ (“+” indicates that p<0.05)"}, {"measurement": "Neurite Network (significance vs insult)", "setting": "[1]; [8]", "value": "+ (“+” indicates that p<0.05)"}, {"measurement": "TH+ neuron number (significance vs insult)", "setting": "[1]; [8]", "value": "+ (“+” indicates that p<0.05)"}, {"measurement": "Neurite Network (significance vs insult)", "setting": "[1]; [9]", "value": "+ (“+” indicates that p<0.05)"}, {"measurement": "TH+ neuron number (significance vs insult)", "setting": "[1]; [9]", "value": "+ (“+” indicates that p<0.05)"}, {"measurement": "Neurite Network (significance vs insult)", "setting": "[1]; [10]", "value": "NS"}, {"measurement": "TH+ neuron number (significance vs insult)", "setting": "[1]; [10]", "value": "NS"}, {"measurement": "Neurite Network (significance vs insult)", "setting": "[1]; [11]", "value": "NS"}, {"measurement": "TH+ neuron number (significance vs insult)", "setting": "[1]; [11]", "value": "NS"}, {"measurement": "Neurite Network (significance vs insult)", "setting": "[1]; [12]", "value": "NS"}, {"measurement": "TH+ neuron number (significance vs insult)", "setting": "[1]; [12]", "value": "+ (“+” indicates that p<0.05)"}, {"measurement": "Neurite Network (significance vs insult)", "setting": "[1]; [13]", "value": "NS"}, {"measurement": "TH+ neuron number (significance vs insult)", "setting": "[1]; [13]", "value": "+ (“+” indicates that p<0.05)"}, {"measurement": "Neurite Network (significance vs insult)", "setting": "[1]; [14]", "value": "+ (“+” indicates that p<0.05)"}, {"measurement": "TH+ neuron number (significance vs insult)", "setting": "[1]; [14]", "value": "+ (“+” indicates that p<0.05)"}, {"measurement": "Neurite Network (significance vs insult)", "setting": "[1]; [15]", "value": "+ (“+” indicates that p<0.05)"}, {"measurement": "TH+ neuron number (significance vs insult)", "setting": "[1]; [15]", "value": "+ (“+” indicates that p<0.05)"}, {"measurement": "Neurotoxic impact of inflammatory-relevant chemical insults (result in words)", "setting": "[1]; MPP+, rotenone, 6-OHDA", "value": "reduces the neurotoxic impact of inflammatory-relevant chemical insults"}, {"measurement": "Neurite Network (significance vs insult)", "setting": "[1]; [16]", "value": "NS"}, {"measurement": "TH+ neuron number (significance vs insult)", "setting": "[1]; [16]", "value": "NS"}, {"measurement": "Neurite Network (significance vs insult)", "setting": "[1]; [17]", "value": "NS"}, {"measurement": "TH+ neuron number (significance vs insult)", "setting": "[1]; [17]", "value": "NS"}, {"measurement": "Neurite Network (significance vs insult)", "setting": "[1]; [18]", "value": "NS"}, {"measurement": "TH+ neuron number (significance vs insult)", "setting": "[1]; [18]", "value": "NS"}, {"measurement": "Neurite Network (significance vs insult)", "setting": "[1]; [19]", "value": "NS"}, {"measurement": "TH+ neuron number (significance vs insult)", "setting": "[1]; [19]", "value": "+ (“+” indicates that p<0.05)"}, {"measurement": "Neurite Network (significance vs insult)", "setting": "[1]; [20]", "value": "+ (“+” indicates that p<0.05)"}, {"measurement": "TH+ neuron number (significance vs insult)", "setting": "[1]; [20]", "value": "+ (“+” indicates that p<0.05)"}, {"measurement": "Neurite Network (significance vs insult)", "setting": "[1]; [21]", "value": "+ (“+” indicates that p<0.05)"}, {"measurement": "TH+ neuron number (significance vs insult)", "setting": "[1]; [21]", "value": "+ (“+” indicates that p<0.05)"}, {"measurement": "Production of nitrite (result in words)", "setting": "[2]; LPS-stimulated BV2", "value": "significantly reduced"}, {"measurement": "Inflammatory Readout: Nitrite (significance of reduction)", "setting": "[2]; dose 0.01 nM", "value": "++ (“++” indicates a p value < 0.005 in Dunnett's multiple comparison)"}, {"measurement": "Inflammatory Readout: Nitrite (significance of reduction)", "setting": "[2]; dose 1 nM", "value": "+++ (“+++” indicates a p value < 0.0005 in Dunnett's multiple comparison)"}, {"measurement": "Inflammatory Readout: Nitrite (significance of reduction)", "setting": "[2]; dose 10 nM", "value": "NS"}, {"measurement": "Significant decrease in Iba1 area, compared to vehicle treated (Aβ challenge)", "setting": "[3]; 100 nM, Pre-(60 min) and Co- Aβ challenge", "value": "+ (“+” indicates a p value < 0.05 in Fisher's LSD post-test compared to Aβ challenged)"}, {"measurement": "Significant decrease in Iba1 area, compared to vehicle treated (Aβ challenge)", "setting": "[3]; 100 nM, Pre-(60 min) and post-(24 h) Aβ challenge", "value": "NS"}, {"measurement": "Significant decrease in Iba1 area, compared to vehicle treated (Aβ challenge)", "setting": "[3]; 100 nM, Pre-(60 min), Co-, and post-(24 h) Aβ challenge", "value": "+ (“+” indicates a p value < 0.05 in Fisher's LSD post-test compared to Aβ challenged)"}, {"measurement": "Significant decrease in Iba1 area, compared to vehicle treated (Aβ challenge)", "setting": "[3]; 1 μM, Pre-(60 min) and Co- Aβ challenge", "value": "+ (“+” indicates a p value < 0.05 in Fisher's LSD post-test compared to Aβ challenged)"}, {"measurement": "Significant decrease in Iba1 area, compared to vehicle treated (Aβ challenge)", "setting": "[3]; 1 μM, Pre-(60 min) and post-(24 h) Aβ challenge", "value": "NS"}, {"measurement": "Significant decrease in Iba1 area, compared to vehicle treated (Aβ challenge)", "setting": "[3]; 1 μM, Pre-(60 min), Co-, and post-(24 h) Aβ challenge", "value": "+ (“+” indicates a p value < 0.05 in Fisher's LSD post-test compared to Aβ challenged)"}, {"measurement": "Significant decrease in Iba1 area, compared to vehicle treated (Aβ challenge)", "setting": "[3]; 60 min pre-Aβ challenge, concentration not given", "value": "+ (“+” indicates a p value < 0.05 in Fisher's LSD post-test compared to Aβ challenged)"}, {"measurement": "Microglial activation, as measured by Iba1 area (result in words)", "setting": "[3]; Aβ1-42 challenge 72 hours", "value": "significantly reduced microglial activation"}]}]}
